Test results reported in patent publication US20200222370A1, “PHARMACEUTICAL COMPOSITION” (KOWA COMPANY, LTD., priority 2017, published 2020).

Assays:
[1] = Stability of pemafibrate under different pH environments (buffer solutions, 80° C., 96 hours, HPLC); type: physicochemical; details: 5 μg/mL, 96 hours later
Experimental: In Test Examples below, measurement was performed through HPLC using an ODS column as a column and an ultraviolet spectrophotometer as a detector. Additionally, the following studies were conducted in order to evaluate the stability of pemafibrate under different pH environments. Namely, buffer solutions were prepared in accordance with the descriptions about buffer solutions of U.S.Pharmacopeia (2013 Edition) and Japanese Pharmacopeia (17th Edition), so as to have the following pH values at 25° C.: pH 2.0 (hydrochloric acid buffer solution including potassium chloride); pH 3.0 and 4.0 (Acid phthalate buffer solution including potassium biphthalate); pH 6.0 and 7.0 (phosphate buffer solution); pH 8.0, 9.0 and 10.0 (Alkaline borate buffer solution including boric acid, potassium chloride and sodium hydroxide); pH 11.0 (Ammonium buffer solution including ammonia and ammonium chloride); and pH 12.0 (phosphate buffer solution). In each of the buffer solutions, pemafibrate was dissolved or dispersed so that its amount as the free form was 5 μg/mL, thereby producing liquid samples having different pH conditions. The liquid samples were stored at 80° C. for 96 hours. The amounts of pemafibrate-derived decomposition products (related substances) in the liquid samples after storage for 96 hours were evaluated through the following method. Specifically, acetonitrile was added to each of the liquid samples, and then they were measured by using HPLC. The sum of peak areas derived from related substances on the chromatogram was calculated in terms of the ratio (%) to the sum of peak areas derived from pemafibrate and related substances, and the ratio was defined as the “Total amount (%) of related substances”.

[2] = pH value of pemafibrate itself dissolved or dispersed in purified water; type: physicochemical; details: pemafibrate 5 μg/mL as free form in purified water
Experimental: Herein, the “a pH value of a solution produced by dissolving or dispersing a pharmaceutical composition in water” means a value obtained by measuring at 25° C. a pH of a solution produced by dissolving or dispersing a pharmaceutical composition containing pemafibrate, a salt thereof or a solvate thereof in water so that the concentration of pemafibrate in terms of a free form is 5 μg/mL. Incidentally, purified water is used as water. First a measurement of a pH value of pemafibrate itself was performed. To be more specific, pemafibrate was dissolved or dispersed in purified water so that the concentration of pemafibrate as the free form was 5 μg/mL. Then, a pH value of the obtained solution at 25° C. was measured.

- Total amount (%) of related substances ([1]; pH 2.0 buffer): 27.1%
- Total amount (%) of related substances ([1]; pH 3.0 buffer): 4.1%
- Total amount (%) of related substances ([1]; pH 4.0 buffer): 1.1%
- Total amount (%) of related substances ([1]; pH 6.0 buffer): 1.3%
- Total amount (%) of related substances ([1]; pH 7.0 buffer): 0.9%
- Total amount (%) of related substances ([1]; pH 8.0 buffer): 0.4%
- Total amount (%) of related substances ([1]; pH 9.0 buffer): <0.1%
- Total amount (%) of related substances ([1]; pH 10.0 buffer): 0.1%
- Total amount (%) of related substances ([1]; pH 11.0 buffer): 0.1%
- Total amount (%) of related substances ([1]; pH 12.0 buffer): <0.1%
- pH value (25° C.) [2]: ~5.9
SMILES: CC[C@@H](Oc1cccc(CN(CCCOc2ccc(OC)cc2)c2nc3ccccc3o2)c1)C(=O)O [pemafibrate, (2R)-2-[3-([1,3-Benzoxazol-2-yl[3-(4-methoxyphenoxy)propyl]amino]methyl)phenoxy]butanoic acid]
